In patent US10709692B2, “Isoxazolidine derived inhibitors of receptor interacting protein kinase 1 (RIPK1)” (Denali Therapeutics Inc., priority 2015, dated 2020):

The compounds below were run against T1, receptor interacting protein kinase 1 (GST-hRIPK1 (8-327)) (Homo sapiens, UniProt Q13546) (assay: Fluorescent Polarization Binding (FP Binding) assay). Settings: 10 nM GST-hRIPK1 (8-327), 5 nM fluorescent-labeled ligand, 30 min at RT.
T1 construct: GST-hRIPK1 (8-327) enzyme was generated by Proteros GmbH by Baculovirus expression system
T1 sequence (Q13546 8-327): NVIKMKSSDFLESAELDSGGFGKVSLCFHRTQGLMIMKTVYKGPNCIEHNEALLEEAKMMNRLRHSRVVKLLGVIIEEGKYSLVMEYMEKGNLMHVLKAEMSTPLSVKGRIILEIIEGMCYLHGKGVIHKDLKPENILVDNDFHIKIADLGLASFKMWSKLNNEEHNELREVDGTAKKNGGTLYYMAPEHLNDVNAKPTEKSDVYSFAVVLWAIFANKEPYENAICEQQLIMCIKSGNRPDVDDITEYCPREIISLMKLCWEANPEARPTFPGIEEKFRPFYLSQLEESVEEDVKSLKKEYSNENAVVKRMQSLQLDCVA
Experimental: Fluorescent Polarization Binding (FP Binding) assay (Berger S. B. et al. (2015) Cell Death Discovery, 1: 15009; Maki J. L. et al. (2012) Anal Biochem., 427(2): 164-174) was performed in polystyrene low volume 384-well black plate, at Room Temperature (RT) in a final volume of 10.1 μl/well using 10 nM of GST-hRIPK1 (8-327) enzyme and 5 nM of fluorescent-labeled ligand (14-(2-{[3-({2-{[4-(cyanomethyl)phenyl]amino}-6-[(5-cyclopropyl-1H-pyrazol-3-yl)amino]-4-pyrimidinyl}amino) propyl]amino}-2-oxoethyl)-16,16,18,18-tetramethyl-6,7,7a,8a,9,10,16,18-octahydrobenzo[2″3″]indolizino[8″, 0.7″:5′,6′]pyrano[3′,2′:3,4]pyrido[1,2-a]indol-5-ium-2-sulfonate.
Test compounds were serially diluted in DMSO at 100 fold final concentrations in the assay (1% DMSO final). In each well of a 384-well Plate were dispensed 0.1 μL of compound solution (or DMSO for controls) followed by 5 μL of GST-hRIPK1 (8-327) at twice the final concentrations in assay-buffer (50 mM HEPES pH 7.5, 10 mM NaCl, 50 mM MgCl2, 0.02% CHAPS, 0.5 mM DTT and 0.01% Pluronic F127). For negative control the enzyme addition was replaced by assay buffer only.
After addition of 5 μL of fluorescent-labeled ligand at twice the final concentrations in assay buffer, the plate was incubated at RT for 30 min. At the end, the binding was measured as FP value with the Envision (PerkinElmer) plate reader using filter for an excitation λ=531 nm FP and an emission λ=595 nm FP (S & P-pol).
Test compound inhibition was expressed as percent inhibition of internal assay controls. For concentration response curves, normalized data is fit and IC50 determined using XL-fit (IDBS) for Excel. IC50 were averaged to determine a mean value, for a minimum of two independent experiments.
Receptor interacting protein kinase 1 activity of exemplary compounds was determined according to the above general procedures.
Receptor interacting protein kinase 1 activity of certain compounds was determined according to the above general procedures.

Structure (SMILES) | IC50 [µM]
O=C(C1CC1(F)F)N1OCC[C@H]1c1ccc(F)cc1 (single isomer, unassigned) [Compound 236] | < 1
O=C(C1CC1(F)F)N1OCC[C@H]1c1ccc(F)cc1 (single isomer, unassigned) [Compound 237] | < 1
O=C(N1OCC[C@H]1c1ccc(F)cc1)C1(C(F)(F)F)CCCC1 [Compound 29, (3S)-3-(4-fluorophenyl)-2-[1-(trifluoromethyl)cyclo-pentanecarbonyl]-1,2-oxazolidine] | < 1
CC(C)(C)C(=O)N1OCC[C@@H]1c1cccc(F)c1F [Compound 30, 1-[(3R)-3-(2,3-Difluorophenyl)-12-oxazolidin-2-yl]-2,2-dimethylpropan-1-one] | < 1
CC(C)(C)C(=O)N1OCC[C@H]1c1cccc(F)c1F [Compound 31, 1-[(3S)-3-(2,3-Difluorophenyl)-1,2-oxazolidin-2-yl]-2,2-dimethylpropan-1-one] | < 1
O=C(N1OCC[C@H]1c1ccc(F)cc1)C12CC(C1)C2 [Compound 32, (3S)-2-{Bicyclo[1.1.1]pentane-1-carbonyl}-3-(4-fluorophenyl)-1,2-oxazolidine] | < 1
O=C(N1OCC[C@H]1c1ccc(F)cc1)C1(C(F)(F)F)CC1 [Compound 37, (3S)-3-(4-Fluorophenyl)-2-[1-(trifluoromethyl)cyclo-propanecarbonyl]-1,2-oxazolidine] | < 1
CCC1(C(=O)N2OCC[C@H]2c2ccc(F)cc2)COC1 [Compound 38, (3S)-2-(3-Ethyloxetane-3-carbonyl)-3-(4-fluorophenyl)-1,2-oxazolidine] | < 1
O=C(N1OCC[C@H]1c1ccc(F)cc1)C1(C(F)(F)F)CCC1 [Compound 39, (3S)-3-(4-Fluorophenyl)-2-[1-(trifluoromethyl)cyclo-butanecarbonyl]-1,2-oxazolidine] | < 1
CC(C)(C)OC(=O)N1CC(C)(C(=O)N2OCC[C@H]2c2ccc(F)cc2)C1 [Compound 44, tert-Butyl 3-[(3S)-3-(4-fluorophenyl)-1,2-oxazolidine-2-carbonyl]-3-methylazetidine-1-carboxylate] | 1 to 10
CC(C)(C)C(=O)N1OCC[C@@H]1c1ccnc(F)c1 [Compound 45, 1-[(3R)-3-(2-Fluoropyridin-4-yl)-1,2-oxazolidin-2-yl]-2,2-dimethylpropan-1-one] | 1 to 10
CC(C)(C)C(=O)N1OCC[C@H]1c1ccnc(F)c1 [Compound 46, 1-[(3S)-3-(2-Fluoropyridin-4-yl)-1,2-oxazolidin-2-yl]-2,2-dimethylpropan-1-one] | < 1
CC(C)(C)C(=O)N1OCC[C@H]1c1ccc(F)c(F)c1 [Compound 50, 1-[(3S)-3-(3,4-Difluorophenyl)-1,2-oxazolidin-2-yl]-2,2-dimethylpropan-1-one] | < 1
CC(C)(C)C(=O)N1OCC[C@@H]1c1ccc(F)c(F)c1 [Compound 51, 1-[(3R)-3-(3,4-Difluorophenyl)-1,2-oxazolidin-2-yl]-2,2-dimethylpropan-1-one] | 1 to 10
Cn1c(C#N)ccc1C(=O)N1OCC[C@@H]1c1ccc(F)cc1 [Compound 59, 5-[(3R)-3-(4-fluorophenyl)-1,2-oxazolidine-2-carbonyl]-1-methyl-1H-pyrrole-2-carbonitrile] | > 10
Cn1c(C#N)ccc1C(=O)N1OCC[C@H]1c1ccc(F)cc1 [Compound 60, 5-[(3S)-3-(4-fluorophenyl)-1,2-oxazolidine-2-carbonyl]-1-methyl-1H-pyrrole-2-carbonitrile] | < 1
CC(C)(C)C(=O)N1OCC[C@@H]1c1cccnc1F [Compound 63, 1-[(3R)-3-(2-Fluoropyridin-3-yl)-1,2-oxazolidin-2-yl]-2,2-dimethylpropan-1-one] | 1 to 10
CC(C)(C)C(=O)N1OCC[C@H]1c1cccnc1F [Compound 66, 1-[(3S)-3-(2-Fluoropyridin-3-yl)-1,2-oxazolidin-2-yl]-2,2-dimethylpropan-1-one] | < 1
CC(C)(C)C(=O)N1OCC[C@@H]1c1c(F)cccc1F [Compound 67, 1-[(3R)-3-(2,6-Difluorophenyl)-1,2-oxazolidin-2-yl]-2,2-dimethylpropan-1-one] | 1 to 10
CC(C)(C)C(=O)N1OCC[C@H]1c1c(F)cccc1F [Compound 68, 1-[(3S)-3-(2,6-Difluorophenyl)-1,2-oxazolidin-2-yl]-2,2-dimethylpropan-1-one] | < 1

More lines, now with the values ahead:

IC50 [µM] | Structure (SMILES)
< 1 | CC(CC(F)F)C(=O)N1OCC[C@H]1c1ccc(C#N)cc1 (single isomer, unassigned) [Compound 233]
> 10 | C[C@H](O)C(=O)N1OCC[C@H]1c1ccccc1 [Compound 15, (2S)-2-Hydroxy-1-[(3S)-3-phenyl-1,2-oxazolidin-2-yl]propan-1-one]
1 to 10 | O=C(c1cnn2ccccc12)N1OCC[C@H]1c1ccccc1 [Compound 21, (3S)-3-phenyl-2-{pyrazolo[1,5-a]pyridine-3-carbonyl}-1,2-oxazolidine]
< 1 | CC1(C(=O)N2OCC[C@H]2c2ccc(F)cc2)COC1 [Compound 33, (3S)-3-(4-Fluorophenyl)-2-(3-methyloxetane-3-carbonyl)-1,2-oxazolidine]
< 1 | O=C(N1OCC[C@H]1c1ccc(F)cc1)C1(F)CC1 [Compound 34, (3S)-2-(1-Fluorocyclopropane-carbonyl)-3-(4-fluorophenyl)-1,2-oxazolidine]
> 10 | CN1CC(C)(C(=O)N2OCC[C@H]2c2ccc(F)cc2)C1 [Compound 42, (3S)-2-(1,3-Dimethylazetidine-3-carbonyl)-3-(4-fluorophenyl)-1,2-oxazolidine]
> 10 | CC1(C(=O)N2OCC[C@H]2c2ccc(F)cc2)CNC1 [Compound 43, (3S)-3-(4-Fluorophenyl)-2-(3-methylazetidine-3-carbonyl)-1,2-oxazolidine]
< 1 | CC(C)(C)C(=O)N1OCC[C@H]1c1ccc(Cl)cc1 [Compound 47, 1-[(3S)-3-(4-Chlorophenyl)-1,2-oxazolidin-2-yl]-2,2-dimethylpropan-1-one]
> 10 | CC(C)(C)C(=O)N1OCC[C@@H]1c1ccc(Cl)cc1 [Compound 48, 1-[(3R)-3-(4-Chlorophenyl)-1,2-oxazolidin-2-yl]-2,2-dimethylpropan-1-one]
< 1 | CC(C)(C)OC(=O)N1OCCC1c1ccc(Cl)cc1 (centres unmarked) [Compound 49, tert-Butyl 3-(4-chlorophenyl)-1,2-oxazolidine-2-carboxylate]
< 1 | O=C(N1OCC[C@H]1c1ccccc1)C1(C(F)(F)F)CC1 [Compound 54, (3S)-3-Phenyl-2-[1-(trifluoromethyl)cyclo-propanecarbonyl]-1,2-oxazolidine]
< 1 | CC(C)(C(=O)N1OCC[C@H]1c1ccccc1)C(F)(F)F [Compound 55, 3,3,3-Trifluoro-2,2-dimethyl-1-[(3S)-3-phenyl-1,2-oxazolidin-2-yl]propan-1-one]
< 1 | CC(C)(F)C(=O)N1OCC[C@H]1c1ccccc1 [Compound 56, 2-Fluoro-2-methyl-1-[(3S)-3-phenyl-1,2-oxazolidin-2-yl]propan-1-one]
< 1 | CC1(C(=O)N2OCC[C@H]2c2ccccc2)CC(F)(F)C1 [Compound 57, (3S)-2-(3,3-difluoro-1-methylcyclobutane-carbonyl)-3-phenyl-1,2-oxazolidine]
< 1 | CC(C)(C)C(=O)N1OCCC1c1cccnc1 (centres unmarked) [Compound 58, 2,2-Dimethyl-1-[3-(pyridin-3-yl)-1,2-oxazolidin-2-yl]propan-1-one]
> 10 | CC(C)C(=O)N1OCC[C@@H]1c1ccc(F)cc1 [Compound 65, 1-[(3R)-3-(4-Fluorophenyl)-1,2-oxazolidin-2-yl]-2-methylpropan-1-one]
1 to 10 | O=C([C@H]1C[C@H](O)C1)N1OCC[C@H]1c1ccccc1 [Compound 75, (1r,3r)-3-[(3S)-3-Phenyl-1,2-oxazolidine-2-carbonyl]cyclobutan-1-ol]
1 to 10 | COCC1(C(=O)N2OCC[C@H]2c2ccccc2)CC1 [Compound 76, (3S)-2-[1-(Methoxymethyl)cyclo-propanecarbonyl]-3-phenyl-1,2-oxazolidine]
